From patent US11801232B2, “Targeting of ARID1A-deficient cancers by inhibiting de novo pyrimidine synthesis pathway” (YALE UNIVERSITY, priority 2019, dated 2023)
Where two headings read alike, the source gives them in different places.

Experiments:
[1] = test system: P-CHK1 Ser345; assay: Immunoblot of phosphorylated CHK1 in ES2 cell lysates; type: cell-based, human; conditions: ES2 cells; teriflunomide 15 μM, AZD6738 1.5 μM
Procedure: Immunoblot Analysis and Co-Immunoprecipitation Assay. For immunoblotting experiments, cells were lysed in BC200 lysis buffer [20 mM Tris-HCl (pH 7.5), 200 mM NaCl, 1 mM EDTA, 0.2% Nonidet P-40 (NP-40), freshly added complete protease inhibitor cocktail (from Roche), and PhosSTOP phosphatase inhibitor (from Roche)] or in boiling SDS lysis buffer [1% SDS and 10 mM Tris-CI (pH 7.5)], as previously described^21. Protein concentrations were quantified using a modified Lowry assay, and equal protein amounts were loaded onto a 10% SDS-PAGE gel and separated by gel electrophoresis, followed by transfer to a nitrocellulose membrane. The nitrocellulose membrane was stained with Ponceau S to confirm equal protein loading and then blocked in 2% BSA in Tris-buffered saline with 0.1% Tween-20 (tris buffered saline with tween, or TBST). Primary antibody incubation was done for 2 h at room temperature or, for phospho-specific antibodies, overnight at 4° C. An HRP-conjugated secondary antibody was used, followed by detection using enhanced chemiluminescence substrate (from Pierce). Autoradiograph images were scanned and saved as unmodified TIFF images, and densitometry analysis was done with ImageJ (from NIH) software.

[2] = test system: ES2 cells; assay: Cytotoxicity (SRB) assay with CalcuSyn combination analysis; type: cell-based; conditions: Homo sapiens, ES2 parental, read-out: Dm
Procedure: Cytotoxicity assay. Cells were seeded in 96-well plates, with 2000 cells in 100 μL/well, and cultured for 24 h. The cells were treated with serial dilutions of drugs or without drug for an additional 72 h. Cell number was determined using a sulforhodamine B (SRB) assay, as previously described^23. Briefly, cells were fixed with 20% trichloroacetic acid (TCA), air-dried, and stained with 0.4% SRB dissolved in 1% acetic acid. After washing, protein-bound dye was solubilized with 10 mM unbuffered Tris-base solution (pH 10.5) and detected at 510 nm using a microplate reader. Percentage of cell-growth was calculated using the following formula: % cell growth=[(Absorbance sample)/(Absorbance untreated)]×100 […] Datasets from at least three independent experiments were combined, and each table cell contains the mean value±SD. SCR, ES2-shScrambled. N/A, not applicable. Statistical analysis was carried out by one-way ANOVA with Bonferroni's post-hoc test, and differences were considered significant at **P<0.01 and ***P<0.001 as compared to the ES2 parental group with the same drug treatment. […] CIwt value was calculated using the formula: […] Datasets from at least three independent experiments were combined, and each table cell contains the mean value±SD. Teri, teriflunomide. SCR, ES2-shScrambled. N/A, not applicable. Statistical analysis was carried out by one-way ANOVA with Bonferroni's post-hoc test, and differences were considered significant at ***P<0.001 as compared to the ES2 parental group with the same drug treatment.

[3] = test system: A2780 cells; assay: as above; type: cell-based; conditions: Homo sapiens, Table 4, single drug, median effect, read-out: Dm
Procedure: Cytotoxicity assay. Cells were seeded in 96-well plates, with 2000 cells in 100 μL/well, and cultured for 24 h. The cells were treated with serial dilutions of drugs or without drug for an additional 72 h. Cell number was determined using a sulforhodamine B (SRB) assay, as previously described^23. Briefly, cells were fixed with 20% trichloroacetic acid (TCA), air-dried, and stained with 0.4% SRB dissolved in 1% acetic acid. After washing, protein-bound dye was solubilized with 10 mM unbuffered Tris-base solution (pH 10.5) and detected at 510 nm using a microplate reader. Percentage of cell-growth was calculated using the following formula: % cell growth=[(Absorbance sample)/(Absorbance untreated)]×100
Using CalcuSyn software (Biosoft), dose-effect curves were generated, and drug concentrations corresponding to a 50% decrease in cell number (IC50) were determined.
Drug concentrations corresponding to a median effect (Dm) are shown for each treatment; teriflunomide concentration is shown for a combination (Combo) treatment at a 10:1 fixed molar ratio of two drugs, teriflunomide and AZD6738. […] CIwt<0.8, =0.8 to 1.2, and >1.2 indicate synergism, an additive effect, and antagonism, respectively. A CIwt value was calculated using the formula: CIwt=(ED50+2ED75+3ED90)/6. Datasets from at least three independent experiments were combined, and each table cell contains the mean value±SD.

[4] = test system: ES2-shARID1A xenografts; conditions: mouse, in vivo, ip, 4 mg/kg
Procedure: Animal Model. All animal procedures were conducted in accordance with a protocol approved by the Institutional Animal Care and Use Committee at Yale University.
Three mouse experiments were performed: (i) to assess an effect of teriflunomide on ES2 cells in vivo, (ii) to assess an effect of teriflunomide on SKOV3 cells in vivo, and (iii) to assess a combination effect of teriflunomide and AZD6738 on ES2-shARID1A cells in vivo. All experiments were performed using subcutaneous cell-xenograft models generated by injecting cells into the flanks of 6-week-old female athymic NCr-nu/nu mice (Charles River Laboratories).
Animal-human dose translation was calculated as previously described^24. Tumor volumes were measured every other day by caliper to determine tumor volume using the formula (length/2)×(width^2). […] Experiments were terminated when mean tumor volume of a vehicle ES2-shCon group reached 1000 mm^3. Tumor xenografts were excised at time of euthanasia. Representative samples were flash-frozen in liquid nitrogen for subsequent protein expression analysis by immunoblotting, as well as being formalin-fixed paraffin-embedded (alternatively, FFPE) for subsequent hematoxylin and eosin staining and immunohistochemical analysis. FFPE sections were reviewed by a pathologist (alternatively, P.H.), and cellular necrosis was quantified as % cross-sectional area of bisected tumor xenografts. […]

[5] = ES-2, Table 1, single drug, median effect

SMILES	Phosphorylation of CHK1 on serine 345 [1]	IC50 [2, 5]	IC50 [3]	Weight loss or toxicity in mice [4]	IC50 ([2]; ES-2, Table 2, teriflunomide alone)
C[C@@H]1COCCN1c1cc(C2([S@](C)(=N)=O)CC2)nc(-c2cc[nH]c3nccc2-3)n1 [AZD6738]	decreased levels	1.23 ± 0.16 µM	5.54 ± 1.06 µM		
C/C(O)=C(\C#N)C(=O)Nc1ccc(C(F)(F)F)cc1 [Teriflunomide, teriflunomide]		26.4 ± 2.18 µM	18.9 ± 1.39 µM	no significant weight loss or toxicity	29.1 ± 0.54 µM
